≈ marks a conversion by molar mass, not a printed value. Like-named read-outs stand apart in the source and are kept apart here.
Assays:
[1] = Aqueous thermodynamic solubility, shake-flask; assay type: physicochemical; settings: aqueous phosphate buffer, 25 °C, pH 7.4, aqueous buffer, thermodynamic from solid, phosphate buffer 0.1 M, pH 7.4, 24 hours
Protocol: The DMSO was evaporated and the dried compounds were equilibrated in glass vials in aqueous phosphate buffer (0.1 M, pH 7.4) for 24 hours at 25° C. under constant stirring. The portion with the dissolved compound was then separated from the remainder through a double centrifugation with a tip wash in between to ensure that no residues of the dried compound were interfering. The solutions were diluted with purified water before quantification using UPLC/MS/MS.

OVCAR3 cells = test: Cellular proliferation EdU assay, OVCAR3; assay type: cell-based, human; settings: Homo sapiens, OVCAR-3, 48 h, read-out: OVCAR3 IC50
Protocol: (§1) Compounds were tested to assess inhibition of cellular proliferation in the breast cancer cell line MCF-7 and the CCNE1-amplified ovarian cell line OVCAR3.
(§2) MCF-7 and OVCAR3 cells in RPMI supplemented with 10% Fetal bovine serum were seeded into 384-well plates (Greiner, Kremsmunster, Austria; 781091), 30 μL/well, using a WellMate. The MCF7 and OVCAR3 cells were seeded at 800 and 1200 cells/well, respectively. Test compounds were added to the wells using an Echo 555 liquid handler and the plates were placed in incubator maintained at 37° C. and 5% CO2 and incubated for two days. On Day 2, an EdU assay was performed following the manufacturer's protocol (Thermo Fisher, C10351). The cells were read on an Acumen eX3 instrument. The IC50 values of test compounds were determined in Genedata by assessing the ratio of signal intensity at 488 nm to the area of signal at 405 nm.

[2] = system: POLR2A Ser2 phosphorylation (CDK9); test: POLR2A Ser2 phosphorylation imaging assay in MCF-7 cells; assay type: cell-based; settings: Homo sapiens, MCF7, 2 h, read-out: POLR2A Ser2 phosphorylation IC50
Protocol: Compounds were tested to assess their effect on CDK9 activity in a cellular context. […] During the cell cycle, CDK9 is a component of a multiprotein complex that phosphorylates POLR2A Ser2 which results in transcription elongation.
[…] were fixed by addition of 40 μL/well of 8% paraformaldehyde and incubated for 10 minutes at room temperature. The plates were washed three times with 50 μL/well PBS using a Biotek EL406 plate washer and then permeabilized for 10 minutes at room temperature in 0.3% Triton X100 in PBS. After washing as before, the plates were blocked using 30 μL/well of 2% BSA (w/v) in PBS-T for over 30 minutes at room temperature. […] After washing in PBS as before, leaving each well in 40 μL of PBS, the plates were sealed and imaged on a Cell Insight imaging system (Thermo) with a 10× objective and 2 fields of view per well. POLR2A Ser2levels were normalized to controls and the IC50 values of test compounds determined using Genedata Screener software.

MCF-7 cells = test: Cellular proliferation EdU assay, MCF-7; assay type: cell-based; settings: Homo sapiens, MCF7, 48 h, read-out: MCF-7 IC50
Protocol: as §1, §2

CDK2:CCNE1 = CDK2:CCNE1 (Homo sapiens (Human), UniProt P24941); test: NanoBRET assay in MCF-7 cells, CDK2; assay type: cell-based; settings: transfected MCF-7 cells, 2 hours, n = 1 or average
Protocol: Compounds were tested in breast cancer cell line MCF-7 to assess inhibition of CDK1, CDK2, and CDK4 activity. […] The next day media were evacuated from the wells using the Bluewasher centrifugal plate washer (Bluecatbio) and 10 μL/well phenol red free OptiMEM was then added using a Multidrop Combi. […] Immediately after compound addition, a Tecan HP300 dispensor was used to dispense the relevant NanoBRET™ tracer to the CDK1 wells (12.5 nl, 400 μM, NanoBRET™ TE Tracer K-9), the CDK2 wells (12.5 nl, 200 μM, NanoBRET™ TE Tracer K-9), and the CDK4 wells (8 nl, 100 μM, NanoBRET™ TE Tracer K-7) and the plates were incubated for 2 hours at 37° C. and 5% CO2. […] The plates were incubated in subdued lighting for 10 minutes and then read on a Pherastar FS plate reader (BMG Technologies) using a NanoBRET™ filter module (460±80 nm/610 nm-LP). The ratio values were normalized to controls and the IC50 values of test compounds determined using Genedata Screener software.

CDK1:CCNB1 = CDK1:CCNB1 (Homo sapiens (Human), UniProt P06493); test: NanoBRET assay in MCF-7 cells, CDK1; assay type: cell-based; settings: CDK1 IC50, NanoBRET, transfected MCF-7 cells, 2 hours; n = 1 or average
Protocol: (§3) Compounds were tested in breast cancer cell line MCF-7 to assess inhibition of CDK1, CDK2, and CDK4 activity. MCF-7 cells transiently transfected with CDK1:CCNB1, CDK2:CCNE1, or CDK4:CCND1 were harvested at a density of 1E5 cells/mL in complete media, seeded 20 μL/well into 384-well Greiner 784080 plates using a Multidrop Combi, and incubated overnight at 37° C. and 5% CO2. The next day media were evacuated from the wells using the Bluewasher centrifugal plate washer (Bluecatbio) and 10 μL/well phenol red free OptiMEM was then added using a Multidrop Combi. […] Immediately after compound addition, a Tecan HP300 dispensor was used to dispense the relevant NanoBRET™ tracer to the CDK1 wells (12.5 nl, 400 μM, NanoBRET™ TE Tracer K-9), the CDK2 wells (12.5 nl, 200 μM, NanoBRET™ TE Tracer K-9), and the CDK4 wells (8 nl, 100 μM, NanoBRET™ TE Tracer K-7) and the plates were incubated for 2 hours at 37° C. and 5% CO2. The plates were allowed to cool for 10 minutes at room temperature and 5 μL/well of TE Nano-Glo®Substrate/Inhibitor at 2.4 μM and 1:500 respectively (N2162 Promega) was added. The plates were incubated in subdued lighting for 10 minutes and then read on a Pherastar FS plate reader (BMG Technologies) using a NanoBRET™ filter module (460±80 nm/610 nm-LP). The ratio values were normalized to controls and the IC50 values of test compounds determined using Genedata Screener software.

CDK4:CCND1 = CDK4:CCND1 (Homo sapiens (Human), UniProt P11802); test: NanoBRET assay in MCF-7 cells, CDK4; assay type: cell-based; settings: CDK4 IC50, NanoBRET, transfected MCF-7 cells, 2 hours; n = 1 or average
Protocol: as §3

[3] = system: NPM phosphorylation (Thr199, CDK2-cyclin E complex); test: NPM phosphorylation imaging assay in MCF-7 cells; assay type: cell-based; settings: Homo sapiens, MCF7, 2 hours, 4N DNA cells
Protocol: Compounds were tested to assess the effects of CDK2 inhibition in a cellular context. […] During the cell cycle, the CDK2-cyclin E complex phosphorylates NPM at Thr199 which is a prerequisite step for initiation of centrosome duplication.
The cells were fixed by addition of 40 μL/well of 8% paraformaldehyde and incubated at room temperature for 10 minutes. The plates were washed three times with 50 μL/well PBS using a Biotek EL406 plate washer and then permeabilized for 10 minutes at room temperature in 0.3% Triton X100 in PBS. After washing as before, the plates were blocked using 30 μL/well of 2% BSA (w/v) in PBS-T for at least 30 minutes at room temperature. […] Cells containing 4N DNA were selected using the Hoechst staining. Phospho-NPM levels were normalized to controls and the IC50 values of test compounds determined using Genedata Screener software.

Sequence of CDK4:CCND1 (P11802 whole entry): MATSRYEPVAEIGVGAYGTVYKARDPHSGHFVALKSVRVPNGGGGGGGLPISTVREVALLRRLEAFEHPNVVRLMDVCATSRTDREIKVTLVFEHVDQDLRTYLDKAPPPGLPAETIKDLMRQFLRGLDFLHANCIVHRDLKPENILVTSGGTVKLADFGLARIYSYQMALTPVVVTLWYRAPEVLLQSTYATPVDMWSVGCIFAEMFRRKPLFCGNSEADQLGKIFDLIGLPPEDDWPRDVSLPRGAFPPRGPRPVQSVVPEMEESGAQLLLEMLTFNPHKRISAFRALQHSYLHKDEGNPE
Sequence of CDK4:CCND1 (P24385 whole entry partner): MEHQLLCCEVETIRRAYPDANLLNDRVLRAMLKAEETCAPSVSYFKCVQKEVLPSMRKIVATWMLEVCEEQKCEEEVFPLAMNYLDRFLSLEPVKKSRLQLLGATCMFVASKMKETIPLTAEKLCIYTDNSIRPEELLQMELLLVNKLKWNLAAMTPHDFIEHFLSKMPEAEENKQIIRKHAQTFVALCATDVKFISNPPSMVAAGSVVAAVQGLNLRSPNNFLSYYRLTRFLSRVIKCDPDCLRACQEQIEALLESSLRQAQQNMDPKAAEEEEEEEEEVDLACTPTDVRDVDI
Sequence of CDK1:CCNB1 (P06493 whole entry): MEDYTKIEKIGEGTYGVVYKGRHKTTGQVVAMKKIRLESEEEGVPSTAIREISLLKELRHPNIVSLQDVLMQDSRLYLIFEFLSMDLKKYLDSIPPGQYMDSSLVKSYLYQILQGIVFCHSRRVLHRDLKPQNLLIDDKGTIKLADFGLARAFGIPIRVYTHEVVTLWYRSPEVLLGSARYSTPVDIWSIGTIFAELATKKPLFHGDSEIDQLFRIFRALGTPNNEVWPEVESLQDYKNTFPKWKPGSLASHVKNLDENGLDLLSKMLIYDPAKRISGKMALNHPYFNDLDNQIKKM
Sequence of CDK1:CCNB1 (P14635 whole entry partner): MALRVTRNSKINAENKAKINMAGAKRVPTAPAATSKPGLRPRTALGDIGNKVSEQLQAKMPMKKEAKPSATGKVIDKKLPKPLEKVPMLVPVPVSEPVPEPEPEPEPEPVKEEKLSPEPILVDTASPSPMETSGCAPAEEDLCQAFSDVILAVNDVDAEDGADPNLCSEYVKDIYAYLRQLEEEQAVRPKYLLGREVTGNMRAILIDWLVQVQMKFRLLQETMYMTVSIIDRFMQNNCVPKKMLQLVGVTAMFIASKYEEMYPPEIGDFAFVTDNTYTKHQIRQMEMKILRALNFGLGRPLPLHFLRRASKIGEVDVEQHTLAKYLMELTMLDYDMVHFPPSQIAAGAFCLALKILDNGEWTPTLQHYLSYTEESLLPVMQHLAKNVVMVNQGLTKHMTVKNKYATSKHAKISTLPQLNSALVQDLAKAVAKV

Structure (SMILES)	solubility at 24 h [1]	IC50 (OVCAR3 cells; EdU assay, two days)	IC50 ([2]; MCF-7 cells, 2 hours)	IC50 [2]	IC50 (MCF-7 cells; EdU assay, two days)	IC50 (CDK2:CCNE1)	IC50 (CDK1:CCNB1)	IC50 (CDK4:CCND1)	IC50 [3]	IC50 (OVCAR3 cells)	IC50 (MCF-7 cells)
CC[C@H](Nc1nc(N[C@H]2CCN(S(=O)(=O)N[C@@H]3CCOC3)C2)c2ncn(CC)c2n1)[C@@H](C)O [Example 18, (S)-3-((9-ethyl-2-(((2R,3S)-2-hydroxypentan-3-yl)amino)-9H-purin-6-yl)amino)-N—((R)-tetrahydrofuran-3-yl)pyrrolidine-1-sulfonamide]	726 µM (≈ 350 µg/mL)	169 nM	23600 nM	–	–	–	–	–	–	–	–
CCNS(=O)(=O)N1CC[C@H](Nc2nc(N[C@H](CC)[C@H](C)O)nc3c2ncn3CC)C1 [Example 11, (S)—N-ethyl-3-((9-ethyl-2-(((2S,3R)-2-hydroxypentan-3-yl)amino)-9H-purin-6-yl)amino)pyrrolidine-1-sulfonamide]	–	1400 nM	–	> 30000 nM	3300 nM	–	–	–	–	–	–
CCNS(=O)(=O)N1CC[C@H](Nc2nc(N[C@@H](CC)[C@H](C)O)nc3c2ncn3CC)C1 [Example 8, (S)—N-ethyl-3-((9-ethyl-2-(((2S,3S)-2-hydroxypentan-3-yl)amino)-9H-purin-6-yl)amino)pyrrolidine-1-sulfonamide]	–	1580 nM	–	> 30000 nM	4770 nM	–	–	–	–	–	–
CC[C@H](Nc1nc(N[C@H]2CCN(S(=O)(=O)N[C@H]3CCOC3)C2)c2ncn(CC)c2n1)[C@@H](C)O [Example 22, (S)-3-((9-ethyl-2-(((2R,3S)-2-hydroxypentan-3-yl)amino)-9H-purin-6-yl)amino)-N—((S)-tetrahydrofuran-3-yl)pyrrolidine-1-sulfonamide]	> 1000 µM	298 nM	> 30000 nM	–	1440 nM	–	–	–	–	–	–
CCNS(=O)(=O)N1CC[C@H](Nc2nc(N[C@H](CC)[C@@H](C)O)nc3c2ncn3CC)C1 (mixture of isomers) [Example 13, (S)—N-ethyl-3-((9-ethyl-2-(((2R,3R)-2-hydroxypentan-3-yl)amino)-9H-purin-6-yl)amino)pyrrolidine-1-sulfonamide]	–	202 nM	–	> 30000 nM	490 nM	–	–	–	–	–	–
CC[C@H](Nc1nc(N[C@H]2CCN(S(=O)(=O)NC)C2)c2ncn(CC)c2n1)C(C)=O [Example 45, (S)-3-((9-ethyl-2-(((S)-2-oxopentan-3-yl)amino)-9H-purin-6-yl)-amino)-N-methylpyrrolidine-1-sulfonamide]	–	359 nM	> 26700 nM	–	944 nM	39 nM	1890 nM	> 29700 nM	–	–	–
CC[C@H](Nc1nc(N[C@H]2CCN(S(=O)(=O)NC)C2)c2ncn(C(F)F)c2n1)[C@@H](C)O [Example 55, (S)-3-((9-(difluoromethyl)-2-(((2R,3S)-2-hydroxypentan-3-yl)amino)-9H-purin-6-yl)amino)-N-methylpyrrolidine-1-sulfonamide]	> 1000 µM	147 nM	14400 nM	–	514 nM	–	–	–	142 nM	–	–
CC[C@H](Nc1nc(N[C@H]2CCN(S(=O)(=O)NCC(F)(F)F)C2)c2ncn(CC)c2n1)[C@@H](C)O [Example 4, (S)-3-((9-ethyl-2-(((2R,3S)-2-hydroxypentan-3-yl)amino)-9H-purin-6-yl)amino)-N-(2,2,2-trifluoroethyl)pyrrolidine-1-sulfonamide]	57 µM (≈ 28.2 µg/mL)	294 nM	> 30000 nM	–	685 nM	–	–	–	164 nM	–	–
CCNS(=O)(=O)N1CC[C@H](Nc2nc(N[C@H](CC)C(C)=O)nc3c2ncn3CC)C1 [Example 12, (S)—N-ethyl-3-((9-ethyl-2-(((R)-2-oxopentan-3-yl)amino)-9H-purin-6-yl)amino)pyrrolidine-1-sulfonamide]	955 µM (≈ 419 µg/mL)	–	–	> 30000 nM	–	88 nM	7480 nM	> 29700 nM	–	1560 nM	3400 nM
CC[C@H](Nc1nc(N[C@H]2CCN(S(=O)(=O)N3CC(F)C3)C2)c2ncn(CC)c2n1)[C@@H](C)O [Example 24, (2R,3S)-3-((9-ethyl-6-(((S)-1-((3-fluoroazetidin-1-yl)sulfonyl)pyrrolidin-3-yl)amino)-9H-purin-2-yl)amino)pentan-2-ol]	466 µM (≈ 219 µg/mL)	856 nM	> 30000 nM	–	2930 nM	–	–	–	–	–	–
CCNS(=O)(=O)N1CC[C@H](Nc2nc(N[C@@H](CC)C(C)=O)nc3c2ncn3CC)C1 [Example 7, (S)—N-ethyl-3-((9-ethyl-2-(((S)-2-oxopentan-3-yl)amino)-9H-purin-6-yl)amino)pyrrolidine-1-sulfonamide]	220 µM (≈ 96.5 µg/mL)	–	–	24200 nM	–	13 nM	591 nM	19100 nM	–	203 nM	486 nM
CC[C@H](Nc1nc(N[C@H]2CCN(S(=O)(=O)NCC(F)F)C2)c2ncn(CC)c2n1)[C@@H](C)O [Example 5, (S)—N-(2,2-difluoroethyl)-3-((9-ethyl-2-(((2R,3S)-2-hydroxypentan-3-yl)amino)-9H-purin-6-yl)amino)pyrrolidine-1-sulfonamide]	> 1000 µM	154 nM	> 30000 nM	–	917 nM	–	–	–	–	–	–

From patent publication US20250197425A1, “2,6,9-TRISUBSTITUTED PURINES” (ASTRAZENECA AB, priority 2022, published 2025)
